Values of other authors as cited in US8604084B2, “Method” (GlaxoSmithKline, LLC, priority 2008, dated 2013).

mean plasma half-life (adults): 2.4 h
plasma half-life, range (adults): 1.5 to 3.0 h
absolute oral bioavailability (independent of dose in the range of 5-20 mg/kg): about 80%
Structure (SMILES): CC(=O)Nc1ccc(O)cc1 [Paracetamol]
plasma protein binding (in vivo): not bound to plasma protein to any extent
volume of distribution (per body weight): about 0.9 litre/kilogram
